According to PubChem BioAssay AID651981 (The Scripps Research Institute Molecular Screening Center, 2013):
The source made the active and inactive calls. The rule behind the calls is not given here.

Legend:
Test in all cases: PubChem AID 651981
DPP9 = settings: BW5147 mouse T-cell proteome, ABPP-SILAC LC-MS ratio, at 1 µM, active compounds read low
DPP8 = settings: BW5147 mouse T-cell proteome, ABPP-SILAC LC-MS ratio, at 1 µM, active compounds read low
LIPE = settings: BW5147 mouse T-cell proteome, ABPP-SILAC LC-MS ratio, at 1 µM, active compounds read low
FAAH = settings: BW5147 mouse T-cell proteome, ABPP-SILAC LC-MS ratio, at 1 µM, active compounds read low
[1] = target: Acyl-protein thioesterase 1 (Mus musculus) (UniProt P97823); settings: BW5147 mouse T-cell proteome, ABPP-SILAC LC-MS ratio; LYPLA1; at 1 µM; active compounds read low
LYPLA2 = settings: BW5147 mouse T-cell proteome, ABPP-SILAC LC-MS ratio, at 1 µM, active compounds read low
ABHD12 = settings: BW5147 mouse T-cell proteome, ABPP-SILAC LC-MS ratio, at 1 µM, active compounds read low
[2] = target: Monoacylglycerol lipase ABHD6 (Mus musculus) (UniProt Q8R2Y0); settings: BW5147 mouse T-cell proteome, ABPP-SILAC LC-MS ratio, at 1 µM, active compounds read low
[3] = target: Prolyl endopeptidase (Mus musculus) (UniProt Q9QUR6); settings: BW5147 mouse T-cell proteome, ABPP-SILAC LC-MS ratio; PREP; at 1 µM; active compounds read low
APEH = settings: BW5147 mouse T-cell proteome, ABPP-SILAC LC-MS ratio, at 1 µM, active compounds read low
PAFAH1B2 = settings: BW5147 mouse T-cell proteome, ABPP-SILAC LC-MS ratio, at 1 µM, active compounds read low
ESD = settings: BW5147 mouse T-cell proteome, ABPP-SILAC LC-MS ratio, at 1 µM, active compounds read low
AADACL1 = settings: BW5147 mouse T-cell proteome, ABPP-SILAC LC-MS ratio, at 1 µM, active compounds read low
DPP4 = settings: BW5147 mouse T-cell proteome, ABPP-SILAC LC-MS ratio, at 1 µM, active compounds read low
PAFAH1B3 = settings: BW5147 mouse T-cell proteome, ABPP-SILAC LC-MS ratio, at 1 µM, active compounds read low
PRCP = settings: BW5147 mouse T-cell proteome, ABPP-SILAC LC-MS ratio, at 1 µM, active compounds read low
TPP2 = settings: BW5147 mouse T-cell proteome, ABPP-SILAC LC-MS ratio, at 1 µM, active compounds read low
SEC23IP = settings: BW5147 mouse T-cell proteome, ABPP-SILAC LC-MS ratio, at 1 µM, active compounds read low
ACOT2 = settings: BW5147 mouse T-cell proteome, ABPP-SILAC LC-MS ratio, at 1 µM, active compounds read low
[4] = target: Platelet-activating factor acetylhydrolase 2, cytoplasmic (Mus musculus) (UniProt Q8VDG7); settings: BW5147 mouse T-cell proteome, ABPP-SILAC LC-MS ratio; PAFAH2; at 1 µM; active compounds read low
ACOT1 = settings: BW5147 mouse T-cell proteome, ABPP-SILAC LC-MS ratio, at 1 µM, active compounds read low
PNPLA7 = settings: BW5147 mouse T-cell proteome, ABPP-SILAC LC-MS ratio, at 1 µM, active compounds read low
PPME1 = settings: BW5147 mouse T-cell proteome, ABPP-SILAC LC-MS ratio, at 1 µM, active compounds read low
PNPLA6 = settings: BW5147 mouse T-cell proteome, ABPP-SILAC LC-MS ratio, at 1 µM, active compounds read low
FASN = settings: BW5147 mouse T-cell proteome, ABPP-SILAC LC-MS ratio, at 1 µM, active compounds read low

Sequence of Platelet-activating factor acetylhydrolase 2, cytoplasmic (Mus musculus) (Q8VDG7 whole entry, looked up): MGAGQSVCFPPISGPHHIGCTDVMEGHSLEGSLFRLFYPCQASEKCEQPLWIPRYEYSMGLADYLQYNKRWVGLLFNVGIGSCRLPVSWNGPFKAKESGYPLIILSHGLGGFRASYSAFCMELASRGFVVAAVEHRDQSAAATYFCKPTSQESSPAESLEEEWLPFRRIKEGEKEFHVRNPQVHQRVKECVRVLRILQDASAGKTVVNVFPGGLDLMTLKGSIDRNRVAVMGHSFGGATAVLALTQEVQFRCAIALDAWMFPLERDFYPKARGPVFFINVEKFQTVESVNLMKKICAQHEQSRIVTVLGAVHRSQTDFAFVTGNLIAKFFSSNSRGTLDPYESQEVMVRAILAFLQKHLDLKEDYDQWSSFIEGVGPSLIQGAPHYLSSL
Sequence of Acyl-protein thioesterase 1 (Mus musculus) (P97823 whole entry, looked up): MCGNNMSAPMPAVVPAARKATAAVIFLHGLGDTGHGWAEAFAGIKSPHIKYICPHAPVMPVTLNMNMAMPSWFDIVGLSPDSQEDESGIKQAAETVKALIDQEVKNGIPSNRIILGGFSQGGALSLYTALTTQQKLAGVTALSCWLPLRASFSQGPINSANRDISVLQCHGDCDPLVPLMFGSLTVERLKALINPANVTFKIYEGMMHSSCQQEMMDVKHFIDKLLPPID
Sequence of Monoacylglycerol lipase ABHD6 (Mus musculus) (Q8R2Y0 whole entry, looked up): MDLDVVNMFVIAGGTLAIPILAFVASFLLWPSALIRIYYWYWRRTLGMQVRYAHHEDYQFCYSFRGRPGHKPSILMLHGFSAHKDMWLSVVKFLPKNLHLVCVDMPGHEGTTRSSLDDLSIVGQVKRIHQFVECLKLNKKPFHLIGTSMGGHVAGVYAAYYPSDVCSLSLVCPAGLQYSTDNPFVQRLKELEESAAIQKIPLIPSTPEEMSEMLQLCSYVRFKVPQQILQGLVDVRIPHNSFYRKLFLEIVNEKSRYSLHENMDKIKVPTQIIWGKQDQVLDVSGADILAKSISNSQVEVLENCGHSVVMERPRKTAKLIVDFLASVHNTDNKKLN
Sequence of Prolyl endopeptidase (Mus musculus) (Q9QUR6 whole entry, looked up): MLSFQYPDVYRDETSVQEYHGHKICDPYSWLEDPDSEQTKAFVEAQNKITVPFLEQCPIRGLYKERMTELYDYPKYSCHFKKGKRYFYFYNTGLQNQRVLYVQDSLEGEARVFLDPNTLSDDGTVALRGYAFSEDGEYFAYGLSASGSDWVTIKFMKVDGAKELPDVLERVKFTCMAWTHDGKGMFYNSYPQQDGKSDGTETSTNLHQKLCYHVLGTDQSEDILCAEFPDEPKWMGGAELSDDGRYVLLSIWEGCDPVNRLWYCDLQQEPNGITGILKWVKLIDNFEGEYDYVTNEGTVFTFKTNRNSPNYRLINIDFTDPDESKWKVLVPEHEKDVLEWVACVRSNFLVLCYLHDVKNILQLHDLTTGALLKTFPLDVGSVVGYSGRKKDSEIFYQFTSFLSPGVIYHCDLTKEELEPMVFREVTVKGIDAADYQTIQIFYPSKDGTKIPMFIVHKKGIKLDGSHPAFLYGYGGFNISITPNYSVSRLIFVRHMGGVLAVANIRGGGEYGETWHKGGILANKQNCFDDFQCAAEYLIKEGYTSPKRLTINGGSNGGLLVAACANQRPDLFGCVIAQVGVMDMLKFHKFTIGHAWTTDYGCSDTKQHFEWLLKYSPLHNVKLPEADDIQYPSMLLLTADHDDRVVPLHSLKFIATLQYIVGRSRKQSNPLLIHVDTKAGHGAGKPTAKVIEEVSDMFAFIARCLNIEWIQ

For `COc1ccc(N2CCN(C(=O)c3cc4c(s3)-c3ccccc3S(=O)(=O)C4)CC2)cc1`, the remaining activity ratio (inhibitor/DMSO) (DPP9) was 1.12 (inactive), the remaining activity ratio (inhibitor/DMSO) (DPP8) was 1.1 (inactive) and the remaining activity ratio (inhibitor/DMSO) (LIPE) was 0.88 (inactive). For the same compound, the remaining activity ratio (inhibitor/DMSO) (FAAH) was 1.25 (inactive), the remaining activity ratio (inhibitor/DMSO) [1] was 1.08 (inactive) and the remaining activity ratio (inhibitor/DMSO) (LYPLA2) was 0.01. The remaining activity ratio (inhibitor/DMSO) (ABHD12) was 1.21 (inactive), the remaining activity ratio (inhibitor/DMSO) [2] was 1.06 (inactive) and the remaining activity ratio (inhibitor/DMSO) [3] was 1.12 (inactive). For the same compound, the remaining activity ratio (inhibitor/DMSO) (APEH) was 1.11 (inactive), the remaining activity ratio (inhibitor/DMSO) (PAFAH1B2) was 1.23 (inactive) and the remaining activity ratio (inhibitor/DMSO) (ESD) was 1.24 (inactive). For the same compound, the remaining activity ratio (inhibitor/DMSO) (AADACL1) was 1.46 (inactive), the remaining activity ratio (inhibitor/DMSO) (DPP4) was 1.17 (inactive) and the remaining activity ratio (inhibitor/DMSO) (PAFAH1B3) was 1.09 (inactive). For the same compound, the remaining activity ratio (inhibitor/DMSO) (PRCP) was 1.56 (inactive), the remaining activity ratio (inhibitor/DMSO) (TPP2) was 1.2 (inactive) and the remaining activity ratio (inhibitor/DMSO) (SEC23IP) was 1.53 (inactive). For the same compound, the remaining activity ratio (inhibitor/DMSO) (ACOT2) was 1.25 (inactive), the remaining activity ratio (inhibitor/DMSO) [4] was 1.14 (inactive) and the remaining activity ratio (inhibitor/DMSO) (ACOT1) was 1.23 (inactive). The remaining activity ratio (inhibitor/DMSO) (PNPLA7) was 1.12 (inactive), the remaining activity ratio (inhibitor/DMSO) (PPME1) was 1.34 (inactive) and the remaining activity ratio (inhibitor/DMSO) (PNPLA6) was 1.03 (inactive). For the same compound, the remaining activity ratio (inhibitor/DMSO) (FASN) was 1.14 (inactive).
